In US8268840B2, “Pyrimidinyl pyridone inhibitors of kinases” (Roche Palo Alto LLC, priority 2008, dated 2012):

Columns and labels:
[1] = target: Human JNK2α2 (Homo sapiens, UniProt P45984); experiment: JNK assay in vitro, phosphorylation of GST-ATF2 (19-96) with [γ-33P] ATP; format: biochemical; details: 1 nM enzyme, 1 μM ATF2, 8 μM ATP (Km), 30° C. for 30 min, ten concentration curves; read-out: IC50 JNK2
Experimental: (§1) JNK activity was measured by phosphorylation of GST-ATF2 (19-96) with [γ-^33P] ATP. The enzyme reaction was conducted at Km concentrations of ATP and the substrate at final volume of 40 μl in buffer containing 25 mM HEPES, pH 7.5, 2 mM dithiothreitol, 150 mM NaCl, 20 mM MgCl2, 0.001% Tween® 20, 0.1% BSA and 10% DMSO. Human JNK2α2 assay contains 1 nM enzyme, 1 μM ATF2, 8 μM ATP with 1 uCi [γ-^33P] ATP. Human JNK1α1 assay contains 2 nM enzyme, 1 μM ATF2, 6 μM ATP with 1 μCi [γ-^33P] ATP. Human JNK3 (Upstate Biotech #14-501M) assay contains 2 nM enzyme, 1 μM ATF2, 4 μM ATP with 1 μCi [γ-^33P] ATP. The enzyme assay was carried out in the presence or absence of several compound concentrations. JNK and compound were pre-incubated for 10 min., followed by initiation of the enzymatic reaction by adding ATP and the substrate. The reaction mixture was incubated at 30° C. for 30 min. At the end of incubation, the reaction was terminated by transferring 25 μl of the reaction mixture to 150 μl of 10% glutathione Sepharose® slurry (Amersham #27-4574-01) containing 135 mM EDTA. The reaction product was captured on the affinity resin, and washed on a filtration plate (Millipore, MABVNOB50) with phosphate buffered saline for six times to remove free radionucleotide. The incorporation of ^33P into ATF2 was quantified on a microplate scintillation counter (Packard Topcount). Compound inhibition potency on JNK was measured by IC50 value generated from ten concentration inhibition curves fitted into the 3-parameter model: % inhibition=Maximum/(1+(IC50/[Inhibitor])^slope). Data were analyzed on Microsoft Excel for parameter estimation.

[2] = target: Human JNK1α1 (Homo sapiens, UniProt P45983); experiment: as above; format: biochemical; details: 2 nM enzyme, 1 μM ATF2, 6 μM ATP (Km), 30° C. for 30 min, ten concentration curves; read-out: IC50 JNK1
Chain of Human JNK1α1 (P45983 1-384 isoform P45983-2): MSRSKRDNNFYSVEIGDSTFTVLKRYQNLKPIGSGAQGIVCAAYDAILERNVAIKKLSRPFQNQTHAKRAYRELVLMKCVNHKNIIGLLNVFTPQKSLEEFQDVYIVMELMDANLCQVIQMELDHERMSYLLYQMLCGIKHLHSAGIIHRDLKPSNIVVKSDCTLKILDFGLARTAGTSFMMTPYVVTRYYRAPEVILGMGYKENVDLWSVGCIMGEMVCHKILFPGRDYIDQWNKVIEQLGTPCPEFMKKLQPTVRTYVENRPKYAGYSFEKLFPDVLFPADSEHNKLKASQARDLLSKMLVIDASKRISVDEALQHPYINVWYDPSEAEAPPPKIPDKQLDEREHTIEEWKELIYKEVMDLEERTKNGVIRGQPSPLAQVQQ
Experimental: as §1

Chain of Human JNK2α2 (P45984 whole entry): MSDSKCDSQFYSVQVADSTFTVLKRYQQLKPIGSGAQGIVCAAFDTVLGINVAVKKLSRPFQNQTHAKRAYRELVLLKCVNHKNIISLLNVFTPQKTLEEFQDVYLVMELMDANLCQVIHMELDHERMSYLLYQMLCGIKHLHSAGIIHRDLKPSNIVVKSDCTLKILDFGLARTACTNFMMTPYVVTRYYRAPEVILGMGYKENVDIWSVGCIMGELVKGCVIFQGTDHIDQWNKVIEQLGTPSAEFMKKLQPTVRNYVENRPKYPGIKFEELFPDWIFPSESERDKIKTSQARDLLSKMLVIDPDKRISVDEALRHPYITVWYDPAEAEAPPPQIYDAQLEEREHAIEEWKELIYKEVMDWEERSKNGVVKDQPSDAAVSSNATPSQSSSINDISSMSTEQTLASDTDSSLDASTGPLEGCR

Nc1cc(=O)n([C@@H]2CC[C@@H](O)C2)c2nc(NC3CCCCC3)ncc12 (racemic) [Compound I-1, 5-Amino-2-cyclohexylamino-8-((1R,3R)-3-hydroxy-cyclopentyl)-8H-pyrido[2,3-d]pyrimidin-7-one] showed a melting point of 169.5 to 170 °C, an IC50 [1] of 25.8 nM and an IC50 [2] of 11.1 nM.

For Nc1cc(=O)n(C2CCC2)c2nc(NC3CCCCC3)ncc12 [Compound I-3, 5-Amino-8-cyclobutyl-2-cyclohexylamino-8H-pyrido[2,3-d]pyrimidin-7-one], the melting point was 120 to 121.5 °C, the IC50 [1] was 40.3 nM and the IC50 [2] was 17.9 nM.

In the case of Nc1cc(=O)n(C2CCCC2)c2nc(N[C@H]3CC[C@H](O)CC3)ncc12 [Compound I-5, 5-Amino-8-cyclopentyl-2-(4-hydroxy-cyclohexylamino)-8H-pyrido[2,3-d]pyrimidin-7-one], the melting point is reported as 246.5 to 248 °C, the IC50 [1] is reported as 43.9 nM and the IC50 [2] is reported as 20.5 nM.

For Nc1cc(=O)n(C2CCCCC2)c2nc(N[C@H]3CC[C@H](C(=O)N4CCOCC4)CC3)ncc12 [Compound I-7, 5-Amino-8-cyclohexyl-2-[4-(morpholine-4-carbonyl)-cyclohexylamino]-8H-pyrido[2,3-d]pyrimidin-7-one], the melting point was 185 to 203 °C, the IC50 [1] was 39.7 nM and the IC50 [2] was 31.6 nM.

For Cc1c(N)c2cnc(N[C@H]3CC[C@H](C(=O)N4CCCC4)CC3)nc2n(C2CCC2)c1=O [Compound I-9, 5-Amino-8-cyclobutyl-6-methyl-2-[4-(pyrrolidine-1-carbonyl)-cyclohexylamino]-8H-pyrido[2,3-d]pyrimidin-7-one], the melting point was 276.6 to 278.4 °C, the IC50 [1] was 37.7 nM and the IC50 [2] was 34.4 nM.
